Structures are written as SMILES. Counter-ions that a name gives are not always drawn.

In patent US9650340B2, “5-fluoro-N-(pyridin-2-yl)pyridin-2-amine derivatives containing a sulfoximine group” (BAYER PHARMA AKTIENGESELLSCHAFT, priority 2012, dated 2017) one finds IC50 data, which are given here for 18 molecules.

The target in one experiment is T1, CDK2/CycE (Homo sapiens, UniProt P24941).
T1 construct: GST; purchased ProQinase GmbH (Freiburg, Germany); host or cells: insect cells (Sf9)
The experiment is described as follows: CDK2/CycE high ATP kinase assay (TR-FRET, 2 mM ATP). It is filed as biochemical. The settings on record: Method 2b. The method, then:
2b. CDK2/CycE High ATP Kinase Assay:
CDK2/CycE-inhibitory activity of compounds of the present invention at 2 mM adenosine-tri-phosphate (ATP) was quantified employing the CDK2/CycE TR-FRET (TR-FRET=Time Resolved Fluorescence Energy Transfer) assay as described in the following paragraphs.
Recombinant fusion proteins of GST and human CDK2 and of GST and human CycE, expressed in insect cells (Sf9) and purified by Glutathion-Sepharose affinity chromatography, were purchase from ProQinase GmbH (Freiburg, Germany). As substrate for the kinase reaction biotinylated peptide biotin-Ttds-[…] (C-terminus in amid form) was used which can be purchased e.g. form the company JERINI peptide technologies (Berlin, Germany).
For the assay 50 nl of a 100 fold concentrated solution of the test compound in DMSO was pipetted into a black low volume 384 well microtiter plate (Greiner Bio-One, Frickenhausen, Germany), 2 μl of a solution of CDK2/CycE in aqueous assay buffer [50 mM Tris/HCl pH 8.0, 10 mM MgCl2, 1.0 mM dithiothreitol, 0.1 mM sodium ortho-vanadate, 0.01% (v/v) Nonidet-P40 (Sigma)] were added and the mixture was incubated for 15 min at 22° C. to allow pre-binding of the test compounds to the enzyme before the start of the kinase reaction. Then the kinase reaction was started by the addition of 3 μl of a solution ATP (3.33 mM=>final conc. in the 5 μl assay volume is 2 mM) and substrate (1.25 μM=>final conc. in the 5 μl assay volume is 0.75 μM) in assay buffer and the resulting mixture was incubated for a reaction time of 25 min at 22° C. The concentration of CDK2/CycE was adjusted depending of the activity of the enzyme lot and was chosen appropriate to have the assay in the linear range, typical concentrations were in the range of 15 ng/ml. The reaction was stopped by the addition of 5 μl of a solution of TR-FRET detection reagents (0.2 μM streptavidine-XL665 [Cisbio Bioassays, Codolet, France] and 1 nM anti-RB(pSer807/pSer811)-antibody from BD Pharmingen [#558389] and 1.2 nM LANCE EU-W1024 labeled anti-mouse IgG antibody [Perkin-Elmer, product no. AD0077, as an alternative a Terbium-cryptate-labeled anti-mouse IgG antibody from Cisbio Bioassays can be used]) in an aqueous EDTA-solution (100 mM EDTA, 0.2% (w/v) bovine serum albumin in 100 mM HEPES/NaOH pH 7.0).
The resulting mixture was incubated 1 h at 22° C. to allow the formation of complex between the phosphorylated biotinylated peptide and the detection reagents. Subsequently the amount of phosphorylated substrate was evaluated by measurement of the resonance energy transfer from the Eu-chelate to the streptavidine-XL. Therefore, the fluorescence emissions at 620 nm and 665 nm after excitation at 350 nm were measured in a TR-FRET reader, e.g. a Rubystar (BMG Labtechnologies, Offenburg, Germany) or a Viewlux (Perkin-Elmer). The ratio of the emissions at 665 nm and at 622 nm was taken as the measure for the amount of phosphorylated substrate.
A general note: In TR-FRET formats the signal depends on donor and acceptor labels being close together.

The next experiment addresses T2, CDK9/CycT1 (Homo sapiens, UniProt P50750).
T2 construct: Recombinant full-length His-tagged human CDK9 and CycT1; His; purchased Invitrogen PV4131; host or cells: insect cells
The experiment is described as follows: CDK9/CycT1 kinase assay (TR-FRET, 10 μM ATP). It counts as biochemical. To be noted: Method 1a. The source says: 1a. CDK9/CyeT1 Kinase Assay:
CDK9/CycT1-inhibitory activity of compounds of the present invention was quantified employing the CDK9/CycT1 TR-FRET assay as described in the following paragraphs:
Recombinant full-length His-tagged human CDK9 and CycT1, expressed in insect cells and purified by Ni-NTA affinity chromatography, were purchased from Invitrogen (Cat. No PV4131). As substrate for the kinase reaction biotinylated peptide biotin-Ttds-[…] (C-terminus in amid form) was used which can be purchased e.g. form the company JERINI Peptide Technologies (Berlin, Germany). For the assay 50 nl of a 100 fold concentrated solution of the test compound in DMSO was pipetted into a black low volume 384 well microtiter plate (Greiner Bio-One, Frickenhausen, Germany), 2 μl of a solution of CDK9/CycT1 in aqueous assay buffer [50 mM Tris/HCl pH 8.0, 10 mM MgCl2, 1.0 mM dithiothreitol, 0.1 mM sodium ortho-vanadate, 0.01% (v/v) Nonidet-P40 (Sigma)] were added and the mixture was incubated for 15 min at 22° C. to allow pre-binding of the test compounds to the enzyme before the start of the kinase reaction.
The resulting mixture was incubated 1 h at 22° C. to allow the formation of complex between the phosphorylated biotinylated peptide and the detection reagents. Subsequently the amount of phosphorylated substrate was evaluated by measurement of the resonance energy transfer from the Eu-chelate to the streptavidine-XL.

T2 sequence (P50750 whole entry): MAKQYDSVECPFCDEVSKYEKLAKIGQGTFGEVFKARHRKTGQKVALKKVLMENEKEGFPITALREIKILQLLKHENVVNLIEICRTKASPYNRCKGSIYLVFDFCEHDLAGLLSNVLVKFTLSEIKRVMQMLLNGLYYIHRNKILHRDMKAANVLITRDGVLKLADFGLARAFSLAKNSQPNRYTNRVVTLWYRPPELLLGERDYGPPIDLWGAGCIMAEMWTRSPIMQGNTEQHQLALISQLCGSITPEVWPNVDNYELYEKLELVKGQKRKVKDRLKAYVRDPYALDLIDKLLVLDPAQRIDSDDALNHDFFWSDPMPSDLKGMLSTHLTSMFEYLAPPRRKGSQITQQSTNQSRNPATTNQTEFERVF
T2 sequence (O60563 whole entry partner): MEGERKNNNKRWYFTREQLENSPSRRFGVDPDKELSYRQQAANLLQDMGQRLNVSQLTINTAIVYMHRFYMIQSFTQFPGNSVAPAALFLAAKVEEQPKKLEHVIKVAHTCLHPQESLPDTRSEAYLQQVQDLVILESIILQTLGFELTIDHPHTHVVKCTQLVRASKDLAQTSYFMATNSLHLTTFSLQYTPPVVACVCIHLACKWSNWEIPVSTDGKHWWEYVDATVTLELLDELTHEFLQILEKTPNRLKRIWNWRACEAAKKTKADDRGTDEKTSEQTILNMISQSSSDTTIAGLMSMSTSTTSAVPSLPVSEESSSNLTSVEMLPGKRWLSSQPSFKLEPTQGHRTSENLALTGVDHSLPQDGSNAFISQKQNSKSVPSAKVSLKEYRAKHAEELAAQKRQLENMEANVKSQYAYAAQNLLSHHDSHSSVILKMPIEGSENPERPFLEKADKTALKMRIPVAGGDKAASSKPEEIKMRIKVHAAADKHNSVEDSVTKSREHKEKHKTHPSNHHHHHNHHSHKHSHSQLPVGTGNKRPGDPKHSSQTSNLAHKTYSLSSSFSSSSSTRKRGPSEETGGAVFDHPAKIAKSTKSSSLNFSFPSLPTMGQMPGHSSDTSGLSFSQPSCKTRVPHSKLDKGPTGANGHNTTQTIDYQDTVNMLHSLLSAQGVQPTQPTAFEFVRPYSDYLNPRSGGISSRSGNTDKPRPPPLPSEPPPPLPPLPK

A word on the IC50: it is the concentration that gives 50% inhibition. Lower therefore signals higher potency. Regarding `COc1cc(F)ccc1-c1cc(Nc2cc(CS(C)(=N)=O)ccn2)ncc1F` (racemic) [Example 1, (rac)-5-Fluoro-4-(4-fluoro-2-methoxyphenyl)-N-{4-[(S-methylsulfonimidoyl)methyl]pyridin-2-yl}pyridin-2-amine], the IC50 against CDK2/CycE is 5.86 µM.

Take `COc1cc(F)ccc1-c1cc(Nc2cc(CS(C)(=N)=O)cc(C)n2)ncc1F` (racemic) [Example 4, (rac)-5-Fluoro-4-(4-fluoro-2-methoxyphenyl)-N-{6-methyl-4-[(S-methylsulfonimidoyl)methyl]pyridin-2-yl}pyridin-2-amine]: the IC50 against CDK9/CycT1 is 0.004 µM; against CDK2/CycE, 1.01 µM.

Take `COc1cc(F)ccc1-c1cc(Nc2cc(CS(C)(=N)=O)c(Br)c(C)n2)ncc1F` (racemic) [Example 5, (rac)-5-Bromo-N-[5-fluoro-4-(4-fluoro-2-methoxyphenyl)pyridin-2-yl]-6-methyl-4-[(S-methylsulfonimidoyl)methyl]pyridin-2-amine]: the IC50 against CDK9/CycT1 came out at 0.005 µM; at CDK2/CycE, 1.77 µM.

As for `COc1cc(CS(C)(=N)=O)cc(Nc2cc(-c3ccc(F)cc3OC)c(F)cn2)n1` (racemic) [Example 6, (rac)-5-Fluoro-4-(4-fluoro-2-methoxyphenyl)-N-{6-methoxy-4-[(S-methylsulfonimidoyl)methyl]pyridin-2-yl}pyridin-2-amine], the IC50 against CDK9/CycT1 worked out at 0.002 µM; on CDK2/CycE, 0.084 µM.

Take `COc1cc(F)ccc1-c1cc(Nc2cc(CS(C)(=N)=O)cc(Cl)n2)ncc1F` (racemic) [Example 7, (rac)-N-{6-Chloro-4-[(S-methylsulfonimidoyl)methyl]pyridin-2-yl}-5-fluoro-4-(4-fluoro-2-methoxyphenyl)pyridin-2-amine]: the values for the IC50 against CDK9/CycT1 and on CDK2/CycE were 0.002 µM and 0.63 µM, respectively.

For `COc1cc(F)ccc1-c1cc(Nc2cc(CS(=N)(=O)CCO)ccn2)ncc1F` (racemic) [Example 8, (rac)-2-{S-[(2-{[5-Fluoro-4-(4-fluoro-2-methoxyphenyl)pyridin-2-yl]amino}pyridin-4-yl)methyl]sulfonimidoyl}ethanol], the half-inhibitory concentration (IC50) turned out to be 0.013 µM against CDK9/CycT1 and 4.19 µM on CDK2/CycE.

In the case of `COc1cc(F)ccc1-c1cc(Nc2cc(CS(=N)(=O)CCN)ccn2)ncc1F` (racemic) [Example 9, (rac)-N-(4-{[S-(2-Aminoethyl)sulfonimidoyl]methyl}pyridin-2-yl)-5-fluoro-4-(4-fluoro-2-methoxyphenyl)pyridin-2-amine], the half-inhibitory concentration (IC50) on CDK9/CycT1 came out at 0.008 µM; on CDK2/CycE, 4.23 µM.

With `CCOC(=O)N=S(C)(=O)Cc1ccnc(Nc2cc(-c3ccc(F)cc3OC)c(F)cn2)c1` (racemic) [Example 11, (rac)-Ethyl{[(2-{[5-fluoro-4-(4-fluoro-2-methoxyphenyl)pyridin-2-yl]amino}pyridin-4-yl)methyl](methyl)oxido-λ^6-sulfanylidene}carbamate], the results for the concentration for half-maximal inhibition (IC50) at CDK9/CycT1 and against CDK2/CycE were 0.001 µM and 2.92 µM, respectively.

As to `CCNC(=O)N=S(C)(=O)Cc1ccnc(Nc2cc(-c3ccc(F)cc3OC)c(F)cn2)c1` (racemic) [Example 12, (rac)-1-Ethyl-3-{[(2-{[5-fluoro-4-(4-fluoro-2-methoxyphenyl)pyridin-2-yl]amino}pyridin-4-yl)methyl](methyl)oxido-λ^6-sulfanylidene}urea], the values for the half-maximal inhibitory concentration (IC50) against CDK9/CycT1 and against CDK2/CycE were 0.002 µM and 3.07 µM, respectively.

`COc1cc(F)ccc1-c1cc(Nc2cc(CS(C)(=O)=NC(C)=O)ccn2)ncc1F` (racemic) [Example 13, (rac)-N-{[(2-{[5-Fluoro-4-(4-fluoro-2-methoxyphenyl)pyridin-2-yl]amino}pyridin-4-yl)methyl](methyl)oxido-λ^6-sulfanylidene}acetamide]: the IC50 is 0.001 µM at CDK9/CycT1 and 3.69 µM against CDK2/CycE.

In the case of `COc1cc(F)ccc1-c1cc(Nc2cc(CS(C)(=O)=NC(=O)C(F)(F)F)cc(F)n2)ncc1F` (racemic) [Example 18, (rac)-2,2,2-Trifluoro-N-{[(2-fluoro-6-{[5-fluoro-4-(4-fluoro-2-methoxyphenyl)pyridin-2-yl]amino}pyridin-4-yl)methyl](methyl)oxido-λ^6-sulfanylidene}acetamide], the IC50 against CDK9/CycT1 is 0.003 µM.

At CDK2/CycE, `COc1cc(F)ccc1-c1cc(Nc2cc(CS(C)(=N)=O)ccn2)ncc1F` (single isomer, unassigned; (+)) [Example 2, (+)-5-Fluoro-4-(4-fluoro-2-methoxyphenyl)-N-{4-[(S-methylsulfonimidoyl)methyl]pyridin-2-yl}pyridin-2-amine] showed a concentration for half-maximal inhibition (IC50) of 2.92 µM.

With `COc1cc(F)ccc1-c1cc(Nc2cc(CS(C)(=N)=O)cc(C)n2)ncc1F` (single isomer, unassigned; (+)) [Example 32, (+)-5-Fluoro-4-(4-fluoro-2-methoxyphenyl)-N-{6-methyl-4-[(S-methylsulfonimidoyl)methyl]pyridin-2-yl}pyridin-2-amine], half-maximal inhibition at CDK2/CycE (IC50) was put at 1.12 µM.

The molecule `COc1cc(F)ccc1-c1cc(Nc2cc(CS(C)(=N)=O)ccn2)ncc1F` (single isomer, unassigned; (-)) [Example 3, (−)-5-Fluoro-4-(4-fluoro-2-methoxyphenyl)-N-{4-[(S-methylsulfonimidoyl)methyl]pyridin-2-yl}pyridin-2-amine] returned a half-inhibitory concentration (IC50) against CDK2/CycE of 2.49 µM.

For `COc1cc(F)ccc1-c1cc(Nc2cc(CS(C)(=N)=O)cc(C(F)(F)F)n2)ncc1F` (single isomer, unassigned; (-)) [Example 23, (−)-5-Fluoro-4-(4-fluoro-2-methoxyphenyl)-N-{4-[(S-methylsulfonimidoyl)methyl]-6-(trifluoromethyl)pyridin-2-yl}pyridin-2-amine], the half-inhibitory concentration (IC50) on CDK2/CycE was 0.283 µM.

`COc1cc(F)ccc1-c1cc(Nc2cc(CS(C)(=N)=O)cc(C)n2)ncc1F` (single isomer, unassigned; (-)) [Example 33, (−)-5-Fluoro-4-(4-fluoro-2-methoxyphenyl)-N-{6-methyl-4-[(S-methylsulfonimidoyl)methyl]pyridin-2-yl}pyridin-2-amine] came in with a concentration for half-maximal inhibition (IC50) against CDK2/CycE of 0.68 µM.

`COc1cc(F)ccc1-c1cc(Nc2cc(CS(C)(=N)=O)ccn2)ncc1F` (single isomer, unassigned; enantiomer 1) [Example 16, 5-Fluoro-4-(4-fluoro-2-methoxyphenyl)-N-{4-[(S-methylsulfonimidoyl)methyl]pyridin-2-yl}pyridin-2-amine hydrochloride; enantiomer 1] registered an IC50 on CDK2/CycE of 5.15 µM.

Take `COc1cc(F)ccc1-c1cc(Nc2cc(CS(C)(=N)=O)ccn2)ncc1F.Cl` (single isomer, unassigned; enantiomer 2) [Example 14, 5-Fluoro-4-(4-fluoro-2-methoxyphenyl)-N-{4-[(S-methylsulfonimidoyl)methyl]pyridin-2-yl}pyridin-2-amine hydrochloride; enantiomer 2]: the IC50 at CDK2/CycE amounted to 3.41 µM.
